We go through three compounds from US20260258035A1, “FIVE-MEMBERED AND SIX-MEMBERED NITROGEN-CONTAINING COMPOUND, AND INTERMEDIATE, PREPARATION METHOD AND USE THEREOF” (HANGZHOU SYNRX THERAPEUTICS BIOMEDICAL TECHNOLOGY CO., LTD., priority 2022, published 2026).

Converted amounts (≈) assume the structure as drawn. Where two headings read alike, the source gives them in different places.

Data set [1] has as its target PARG (poly ADP-ribonal hydrolase) (Homo sapiens, UniProt Q86W56). In words: Biochemical assay (PARG, TFMU-ADPr substrate). To be noted: PARG, TFMU-ADPr substrate.
In data set [2] the test system is HCC1806. In words: Cell viability assay (CellTiter-Glo). Type of data set: cell-based, Human. The settings on record: HCC1806, 7 days, CellTiter-Glo, read-out: IC50 (nM) in cell viability assay.
Data set [3] addresses T1, PXR (Homo sapiens, UniProt O75469).
T1 construct: host or cells: DPX2 (HepG2)
T1 sequence (O75469 1-434): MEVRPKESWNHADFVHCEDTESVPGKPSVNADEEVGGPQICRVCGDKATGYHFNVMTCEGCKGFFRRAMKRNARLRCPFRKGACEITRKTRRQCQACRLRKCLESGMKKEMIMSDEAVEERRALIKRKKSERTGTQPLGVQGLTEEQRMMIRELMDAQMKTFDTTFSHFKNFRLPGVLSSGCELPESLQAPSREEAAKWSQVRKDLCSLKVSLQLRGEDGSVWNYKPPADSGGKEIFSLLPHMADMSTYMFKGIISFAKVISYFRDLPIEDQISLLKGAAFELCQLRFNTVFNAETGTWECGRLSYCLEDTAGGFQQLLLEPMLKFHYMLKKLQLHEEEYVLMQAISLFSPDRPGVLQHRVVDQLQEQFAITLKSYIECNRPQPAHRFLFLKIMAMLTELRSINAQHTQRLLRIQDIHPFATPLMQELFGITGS
In words: PXR assay (DPX2 luciferase reporter cells). The format is cell-based. The settings on record: 24 h; for PXR Activation @30 uM (% Ctrl): positive control rifampicin. The procedure:
1) Information of Cell Line
DPX2 (HepG2 cells stably transfected with PXR and luciferase reporter) cells were purchased from Puracyp Inc (Carlsbad, CA).
2) Experimental Procedures a) Reagents and Consumables
The DPX2 cells were cultured in the growth medium containing 1000 fetal bovine serum. The DPX2 cells in a T-75 flask were cultured in the […] incubator at 37° C. with 950% relative humidity, and digested when the cells grew to cover 80-90% of the bottom of the flask.
The surface layer of the T-75 cultured cells was washed with 10 mL of PBS; PBS was pipetted; 3-5 mL of tryp sin was added; the cells were digested at 37° C. for 5 minutes or until the cells were digested to be suspended; and excessive medium containing fetal bovine serum was added to stop trypsinization. The cell suspension was transferred to a conical-bottomed centrifuge tube and centrifuged at 150 g rpm for 5 minutes at room temperature; the supernatant was carefully pipetted; and the cells were resuspended with the treatment medium, with the concentration adjusted to 3.2×10^5 cells/mL (incubation time: 24 hours, plate seeding density: […]). 25 μL of the cell suspension was added to each well of the 384-well cell culture plate.
The cell culture plate was placed and cultured for 24 h in the […] incubator with 9500 humidity at 37° C. c) Formulation of Compound
The stock solution of each of 1000× test compound, the positive control (rifampicin), and the negative control (propranolol) was prepared with DMSO. The final concentrations of the positive control (rifampicin) were 1 μM and 10 μM, and the final concentration of the negative control (propranolol) was 10 μM. The final concentrations of the test compound were 10 μM, 1 μM, 0.1 μM, or EC50 (30 μM, 10 μM, 3 μM, 1 μM, 0.3 μM, 0.1 μM). The final concentration of DMSO was 0.10. The cell culture plate was taken out from the incubator, and 25 nL of the stock solution of the positive control, negative control or test compound was directly added with Echo, each with three parallel concentrations. The cell culture plate was placed in the incubator and continued to be incubated for 24 h. Before starting the assay with the substrate, the cell morphology and the monolayer integrity were checked to ensure that the monolayer was of acceptable research quality. […]
d) Quantitative Detection with PXR Activation
After 24 hours of dosing, the culture could be quantitatively detected with PXR activation. The CellTiter-Fluor™ Cell Viability Assay Kit and One-Glo Luciferase reagent were equilibrated to room temperature. The GF-AFC substrate (10 μL) was added to the assay buffer (10 ml) to develop a 2× reagent, which was then diluted into a 1× reagent with 10 ml of PBS. The ONE-Glo Luciferase substrate was added to the ONE-Glo Luciferase assay buffer. The culture plate was taken out from the incubator; the medium was discarded; 1× of CellTiter-Fluor™ reagent was poured into the loading slot; 25 μL of reagent were added per well to the culture plate with a pipetting workstation; and the culture plate was then incubated in the incubator for 30 minutes. The cell culture plate was taken out from the incubator, and cooled slightly to room temperature; and the fluorescence value was determined with a fully automatic quantitative microplate reader, with the excitation light of 400 nm and the emission light of 505 nm. The ONE-Glo reagent was poured into the loading slot, with 25 μL per well, and the resulting mixture was gently mixed in the plate, and incubated at room temperature for 5 minutes to determine the luminescence value.

Data set [4] addresses PARG (Homo sapiens, UniProt Q86W56). In words: Biochemical assay (PARG, TFMU-ADPr substrate). The settings on record: PARG, TFMU-ADPr substrate.
Data set [5] can be described thus: Solubility assay (FaSSGF / FaSSIF). The format is physicochemical. The settings on record: kinetic from dmso stock, 2 h at 25° C. The procedure: 1). Preparation of Solutions:
The FaSSGF solution was prepared as follows: • a) preparation of FaSSGF buffer: dissolve 2.0 g of NaCl as the raw material in about 0.9 L of purified water; • b) adjustment of the pH of the buffer: adjust the pH of the buffer to 1.6 with 1N HCL, and replenish the buffer with purified water to the volume of 1 L; and • c) preparation of FaSSGF solution by addition of FaSSGF powder: add 0.06 g of the FaSSGF powder to about 0.5 L of the buffer, stir until the powder was completely dissolved, and make up for the volume (1 L) with the buffer.
The FaSSIF solution was prepared as follows: • a) preparation of FaSSIF buffer: dissolve 0.42 g of NaOH, 3.44 g of anhydrous NaH2PO4, and 6.19 g of NaCl as raw materials in about 0.9 L of purified water; • b) adjustment the pH of the buffer: adjust the pH of the buffer to 6.5 with 1 N NaOH or 1 N HCL, and replenish the buffer with purified water to the volume of 1 L; and • c) preparation of FaSSIF solution by addition of FaSSIF powder: add 2.24 g of the FaSSIF powder to about 0.5 L of the buffer, stir until the powder was completely dissolved, and make up for the volume (1 L) with the buffer.
2). Preparation of the Solution of Control Compound:
The control compound was weighed and dissolved in DMSO to 10 mM to obtain a stock solution.
3) Preparation of the Solution of Compound to be Tested:
The compound to be tested was formulated into a 10 mM DMSO stock solution.
4) Preparation of Internal Standard Solution:
a) The internal standard was weighed and dissolved in DMSO to 10 mM to obtain an internal standard stock solution (ISTD stock solution).
b) The internal standard stock solution was diluted to 500 nM (Tolbutamide) with an ACN:methano mixture (volume ratio: 1:1) to obtain a quenching solution.
a) The FaSSGF solution at pH 1.6 and the FaSSIF solution at pH 6.5 were pre-warmed; and then, the compound was injected into the buffer.
Once done, the samples were centrifuged at 12,000 rpm for 10 min, and the supernatant was transferred to a new tube. The supernatant was diluted 10-fold and 100-fold with the FaSSGF solution at pH 1.6 or the FaSSIIF solution at pH 6.5. 20 μL of each sample (1×, 10×, 100× and standard curve) was added to 500 μL of the IS solution. The resulting mixture was vortexed vigorously for 1 min and centrifuged at 4,500 rpm for 15 min at 4° C. 150 μL of the supernatant was transferred for LC-MS/MS sample analysis.

Setting [6] is: fassgf or other biorelevant, FaSSGF solution pH 1.6, 100 μM from DMSO stock, read-out: FaSSGF solubility.
[7] abbreviates: FaSSIF solution pH 6.5, 100 μM from DMSO stock, read-out: FaSSIF solubility.

Chain of PARG (Q86W56 whole entry): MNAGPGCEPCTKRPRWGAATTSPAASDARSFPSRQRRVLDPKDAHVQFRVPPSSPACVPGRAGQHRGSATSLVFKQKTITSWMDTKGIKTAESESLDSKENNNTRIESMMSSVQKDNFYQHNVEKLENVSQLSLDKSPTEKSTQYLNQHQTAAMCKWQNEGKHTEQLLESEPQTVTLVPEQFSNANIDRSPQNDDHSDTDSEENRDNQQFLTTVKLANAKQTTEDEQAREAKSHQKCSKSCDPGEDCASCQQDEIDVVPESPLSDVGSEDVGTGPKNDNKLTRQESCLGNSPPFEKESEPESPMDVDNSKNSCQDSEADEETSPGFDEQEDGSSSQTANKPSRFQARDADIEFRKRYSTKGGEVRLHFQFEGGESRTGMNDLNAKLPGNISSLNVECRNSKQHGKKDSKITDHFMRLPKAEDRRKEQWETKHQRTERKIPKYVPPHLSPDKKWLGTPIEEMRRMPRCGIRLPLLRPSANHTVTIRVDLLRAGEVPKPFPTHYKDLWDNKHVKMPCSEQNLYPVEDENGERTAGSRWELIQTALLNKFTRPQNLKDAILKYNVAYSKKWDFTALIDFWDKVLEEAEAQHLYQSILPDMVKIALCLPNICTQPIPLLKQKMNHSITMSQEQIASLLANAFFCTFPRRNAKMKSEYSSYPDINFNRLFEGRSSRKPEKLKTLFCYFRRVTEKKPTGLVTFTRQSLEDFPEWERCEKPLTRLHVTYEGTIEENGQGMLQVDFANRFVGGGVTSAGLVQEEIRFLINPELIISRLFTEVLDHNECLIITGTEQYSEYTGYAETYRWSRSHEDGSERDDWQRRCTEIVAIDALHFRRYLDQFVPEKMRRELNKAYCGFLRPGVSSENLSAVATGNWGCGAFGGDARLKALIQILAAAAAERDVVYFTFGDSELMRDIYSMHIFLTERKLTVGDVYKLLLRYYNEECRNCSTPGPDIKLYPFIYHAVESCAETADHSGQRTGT
Chain of PARG (poly ADP-ribonal hydrolase) (Q86W56 whole entry): as above

On to `CC(C)C(=O)N1CCN(c2cc(S(=O)(=O)NC(C)C(F)(F)F)cn3c(-c4nnc(C(F)F)s4)ncc23)CC1` (stereo not shown) [Example 35, 3-(5-(difluoromethyl)-1,3,4-thiadiazol-2-yl)-8-(4-isobutyrylpiperazin-1-yl)-N-(1,1,1-trifluoropropan-2-yl)imidazo[1,5-a]pyridine-6-sulfonamide], for which, in data set [1], half-maximal inhibition (IC50) was put at 128 nM.

Regarding `N#CC1(NS(=O)(=O)c2cc(N3CCN(C(=O)C4CCO4)CC3)c3cnc(-c4nnc(C(F)(F)F)s4)n3c2)CC1` (stereo not shown) [Example 236, N-(1-cyanocyclopropyl)-8-(4-(oxetane-2-carbonyl)piperazin-1-yl)-3-(5-(trifluoromethyl)-1,3,4-thiadiazol-2-yl)imidazo[1,5-a]pyridine-6-sulfonamide], the figures for the concentration for half-maximal inhibition (IC50) in data set [2] and in data set [4] were 1100 nM and 3.8 nM, respectively. In addition, in data set [3], the “PXR Activation @30 uM (Fold)” value turned out to be 1.5 Fold. The “PXR Activation @30 uM (% Ctrl)” value in data set [3] is given as 7 % Ctrl. The figures for the solubility at 2 h in data set [5] (setting [6]) and in data set [5] (setting [7]) were 75.7 µM (≈ 44.1 µg/mL) and 82.6 µM (≈ 48.1 µg/mL), respectively.

On to `N#CC1(NS(=O)(=O)c2cc(N3CCN(C(=O)C4CNC4)CC3)c3cnc(-c4nnc(C(F)(F)F)s4)n3c2)CC1` [Example 251, 8-(4-(azetidine-3-carbonyl)piperazin-1-yl)-N-(1-cyanocyclopropyl)-3-(5-(trifluoromethyl)-1,3,4-thiadiazol-2-yl)imidazo[1,5-a]pyridine-6-sulfonamide], for which the concentration for half-maximal inhibition (IC50) in data set [2] (Homo sapiens, HCC1806, 168 h) worked out at 8780 nM; in data set [4], 6.03 nM. Besides, in data set [3], the “PXR Activation @30 uM (Fold)” value stood at 1.5 Fold. Further, in data set [3], the “PXR Activation @30 uM (% Ctrl)” value was 11 % Ctrl. The figures for the solubility at 2 h in data set [5] (setting [6]) and in data set [5] (setting [7]) were 80.6 µM (≈ 46.9 µg/mL) and 78.1 µM (≈ 45.4 µg/mL), respectively.
